Measurements published in patent US12344610B2, “APOL1 inhibitors and methods of use” (Maze Therapeutics, Inc., priority 2022, dated 2025).

Columns and labels:
Format in all cases: cell-based
[1] = test system: HEK293 clonal cell line overexpressing APOL1 G1; experiment: APOL1 G1 HEK293 cell rescue assay (Example B3); conditions: Homo sapiens, HEK293, HEK293 clonal line overexpressing APOL1 G1; geometric mean of at least 2 runs; † = single run; ¥ = concentration at 50% rescue estimated (no sigmoidal curve)
In short: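 HEK293 clonal line overexpressing APOL1 G1; EC50 is half-maximal reversal of APOL1-induced cell death. Values are the geometric mean of ≥2 runs on separate days, each run the average of duplicate wells. Where no sigmoidal curve could be fitted, the concentration giving 50% rescue was estimated.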

[2] = target: T1, APOL1 G2 (Homo sapiens, UniProt O14791, DEL388-389); experiment: APOL1-mediated calcium transport (calcium influx) assay, HEK T-REx/GCaMP6f/APOL1 G2 K6.3 cells, FLIPR TETRA; conditions: prevention of calcium influx; geometric mean of at least 2 assay runs; † = average of a technical replicate from a single assay run
T1 construct: expressed in transfected cells; host or cells: HEK293 T-REx clonal line stably expressing GCaMP6f (HEK T-REx/GCaMP6f/APOL1 G2 K6.3), doxycycline induced
T1 sequence (O14791 with tags, fused parts or gaps DEL388-389): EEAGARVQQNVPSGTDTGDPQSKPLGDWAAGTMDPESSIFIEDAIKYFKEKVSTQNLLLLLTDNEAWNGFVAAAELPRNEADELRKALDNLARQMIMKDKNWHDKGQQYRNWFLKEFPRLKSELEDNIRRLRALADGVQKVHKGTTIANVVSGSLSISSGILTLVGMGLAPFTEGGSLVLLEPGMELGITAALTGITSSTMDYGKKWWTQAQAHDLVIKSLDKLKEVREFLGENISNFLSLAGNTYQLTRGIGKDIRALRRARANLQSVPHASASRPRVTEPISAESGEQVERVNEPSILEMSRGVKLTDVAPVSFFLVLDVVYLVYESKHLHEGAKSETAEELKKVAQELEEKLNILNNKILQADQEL
In short: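 A HEK293 T-REx clone stably expressing GCaMP6f had APOL1 G2 induced with doxycycline (20 ng/mL solution added) for 6 h. Cells were then washed into Ca2+-free Tyrode's buffer (pH 7.4) and preincubated with compounds (duplicate 8-point) for 10 min at room temperature. Ca2+ injection to 5 mM final produced FLIPR GCaMP fluorescence, giving AC50 for influx inhibition (geometric mean, ≥2 runs).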

[3] = test system: HEK293 cells overexpressing APOL1 G2; experiment: APOL1 G2 HEK293 cell rescue assay (reversal of cell death caused by overexpression of APOL1); conditions: Homo sapiens, HEK293, HEK293 overexpressing APOL1 G2; geometric mean of at least 2 assay runs; † = single assay run
In short: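 EC50 is the half-maximal effective concentration for reversing cell death driven by APOL1 G2 overexpression in HEK293 cells. Reported as geometric mean of at least 2 runs on separate days, each run averaging duplicate wells per plate; some values from a single run.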

Compound `CS(=O)(=O)C1(c2ccc(OCCN3CCC4(CC3)C(=O)Nc3ccc(C#N)cc34)cc2)CCOCC1` [Compound 187, 1′-{2-[4-(4-methanesulfonyloxan-4-yl)phenoxy]ethyl}-2-oxo-1,2-dihydrospiro[indole-3,4′-piperidine]-5-carbonitrile] has an EC50 [1] of 1.26 µM, an AC50 [2] of 1.22 µM and an EC50 [3] of 0.268 µM.

For `CC(=O)N1CCc2cc(OCCN3CCC4(CC3)C(=O)Nc3ccc(Cl)cc34)ccc2C1` [Compound 194, 1′-{2-[(2-acetyl-1,2,3,4-tetrahydroisoquinolin-6-yl)oxy]ethyl}-5-chloro-1,2-dihydrospiro[indole-3,4′-piperidin]-2-one], the EC50 [1] was 0.414 µM, the AC50 [2] was 0.6 µM and the EC50 [3] was 0.246 µM.

`CC(COc1ccc2c(c1)CCC(=O)N2C)N1CCC2(CC1)C(=O)Nc1ccc(Cl)cc12` (stereo not drawn) [Compound 199, 5-chloro-1′-{1-[(1-methyl-2-oxo-1,2,3,4-tetrahydroquinolin-6-yl)oxy]propan-2-yl}-1,2-dihydrospiro[indole-3,4′-piperidin]-2-one] was tested, and the EC50 [1] was 0.312 µM, the AC50 [2] was 1.13 µM and the EC50 [3] was 0.148 µM.

Work on `CC(COc1ccc2c(c1)CCC(=O)N2C)N1CCC2(CC1)C(=O)Nc1ccc(C#N)cc12` (stereo not drawn) [Compound 202, 1′-{1-[(1-methyl-2-oxo-1,2,3,4-tetrahydroquinolin-6-yl)oxy]propan-2-yl}-2-oxo-1,2-dihydrospiro[indole-3,4′-piperidine]-5-carbonitrile] yielded an EC50 [1] of 2.55 µM, an AC50 [2] of 1.72 µM and an EC50 [3] of 0.315 µM.

Compound `CS(=O)(=O)c1ccc(OCCN2CCC3(CC2)C(=O)Nc2ccc(Cl)cc23)cc1C(F)CF` (stereo not drawn) [Compound 217, 5-chloro-1′-{2-[3-(1,2-difluoroethyl)-4-methanesulfonylphenoxy]ethyl}-1,2-dihydrospiro[indole-3,4′-piperidin]-2-one] has an EC50 [1] of 0.108 µM, an AC50 [2] of 0.866 µM and an EC50 [3] of 0.0326 µM.

In the case of `CS(=O)(=O)c1ccc(OCCN2CCC3(CC2)C(=O)Nc2ccc(C#N)cc23)cc1C(F)CF` (stereo not drawn) [Compound 220, 1′-{2-[3-(1,2-difluoroethyl)-4-methanesulfonyl-phenoxy]ethyl}-2-oxo-1,2-dihydrospiro [indole-3,4′-piperidine]-5-carbonitrile], the EC50 [1] is reported as 0.301 µM, the AC50 [2] is reported as 0.679 µM and the EC50 [3] is reported as 0.053 µM.

Compound `CS(=O)(=O)c1ccc(OCCN2CCC3(CC2)C(=O)Nc2ccc(Cl)cc23)cc1C1COC1` [Compound 223, 5-chloro-1′-{2-[4-methanesulfonyl-3-(oxetan-3-yl)phenoxy]ethyl}-1,2-dihydrospiro[indole-3,4′-piperidin]-2-one] has an EC50 [1] of 0.326 µM, an AC50 [2] of 0.311 µM and an EC50 [3] of 0.0978 µM.

`CNC(=O)N1CCc2cc(OCCN3CCC4(CC3)C(=O)Nc3ccc(C#N)cc34)ccc2C1` [Compound 246, 6-(2-{5-cyano-2-oxo-1,2-dihydrospiro[indole-3,4′-piperidin]-1′-yl}ethoxy)-N-methyl-1,2,3,4-tetrahydroisoquinoline-2-carboxamide] was tested, and the EC50 [1] was 4.86 µM, the AC50 [2] was 1.34 µM and the EC50 [3] was 0.562 µM.

`N#Cc1ccc2c(c1)C1(CCN(CCOc3ccc(C4(C(=O)N5CC(F)C5)COC4)cc3)CC1)C(=O)N2` [Compound 252, 1′-(2-{4-[3-(3-fluoroazetidine-1-carbonyl)oxetan-3-yl]phenoxy}ethyl)-2-oxo-1,2-dihydrospiro[indole-3,4′-piperidine]-5-carbonitrile] was tested, and the EC50 [1] was about 1.8 µM, the AC50 [2] was 1.35 µM and the EC50 [3] was 0.471 µM.

Work on `N#Cc1ccc2c(c1)C1(CCN(CCOc3ccc(C4(C(=O)N5CCC5)COC4)cc3)CC1)C(=O)N2` [Compound 253, 1′-(2-{4-[3-(azetidine-1-carbonyl)oxetan-3-yl]phenoxy}ethyl)-2-oxo-1,2-dihydrospiro[indole-3,4′-piperidine]-5-carbonitrile] yielded an EC50 [1] of about 4.4 µM, an AC50 [2] of 1.22 µM and an EC50 [3] of 0.608 µM.

In the case of `O=C1Cc2cc(OCCN3CCC4(CC3)C(=O)Nc3ccc(Cl)cc34)cc(F)c2N1` [Compound 256, 5-chloro-1′-{2-[(7-fluoro-2-oxo-2,3-dihydro-1H-indol-5-yl)oxy]ethyl}-1,2-dihydrospiro[indole-3,4′-piperidin]-2-one], the EC50 [1] is reported as 0.116 µM, the AC50 [2] is reported as 0.261 µM and the EC50 [3] is reported as 0.0446 µM.
